This is an account of results in US5304565A, “Nitrogen containing heterocyclic compounds, their production and use” (Takeda Chemical Industries, Ltd., priority 1990, dated 1994).

For experiment [1], the target named is T1, A-II-receptor (membrane fraction of bovine adrenal cortex) (Bos taurus, UniProt P25104).
T1 construct: prepared from the membrane fraction of bovine adrenal cortex; from tissue; host or cells: bovine adrenal cortex, membrane fraction
T1 sequence (P25104 1-359): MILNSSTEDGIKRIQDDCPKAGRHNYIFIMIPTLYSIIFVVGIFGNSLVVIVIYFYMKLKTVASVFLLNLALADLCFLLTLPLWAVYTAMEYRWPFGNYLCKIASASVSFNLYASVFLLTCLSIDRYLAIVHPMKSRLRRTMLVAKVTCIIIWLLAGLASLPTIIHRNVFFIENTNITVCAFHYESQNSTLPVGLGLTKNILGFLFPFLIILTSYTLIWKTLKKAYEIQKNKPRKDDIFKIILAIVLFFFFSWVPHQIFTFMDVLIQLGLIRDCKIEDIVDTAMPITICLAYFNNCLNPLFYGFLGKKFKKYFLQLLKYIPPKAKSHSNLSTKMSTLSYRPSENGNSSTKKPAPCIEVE
Kind of experiment: Inhibition of binding of angiotensin-II to angiotensin receptor (radio receptor assay, 125I-A-II). As to conditions: room temperature, one hour; for inhibition at 1 µM: 10^-6 M; for inhibition at 0.1 µM: 10^-7 M. The procedure:
An experiment of inhibition on the binding of angiotensin-II (A-II) to A-II-receptor was conducted by modifying the method of Douglas et al. [Endocrinology, 102, 685-696 (1978)]. An A-II-receptor was prepared from the membrane fraction of bovine adrenal cortex.
The compound of the present invention (10^-9 M to 3×10^-5 M) and ^125 I-A-II (1.85 kBq/50 μl) were added to the receptor membrane fraction, and the mixture was incubated at room temperature for one hour. The receptor-bound and free ^125 I-A-II were separated through a filter (Whatman GF/B filter), and the radioactivity of ^125 I-A-II bound to the receptor was measured.

The subject of experiment [2] is A-II-induced pressor action. Kind of experiment: Inhibitory effect on pressor action of A-II (100 ng/kg i.v.) after oral administration. The class given is in vivo, Jcl: SD rats (9 week old, male). The conditions noted are these: Rattus norvegicus, 30 mg/kg p.o., SD rats, read-out: Pressor Response (30 mg/Kg, p.o.) (% Inhibition). On the procedure:
Jcl: SD rats (9 week old, male) were used. On the day previous to the experiment, these animals were applied with cannulation into the femoral artery and vein under anesthesia with pentobarbital Na. The animals were fasted but allowed free access to drinking water until the experiment was started. Just on the day of conducting the experiment, the artery cannula was connected with a blood-pressure transducer, and the average blood pressure was recorded by means of polygraph. Before administration of the drug, the pressor action due to intravenous administration of A-II (100 ng/kg) as the control was measured. The drugs were orally administered, and then, at each point of the measurement, A-II was administered intravenously, and the pressor action was similarly measured. By comparing the pressor action before and after administration of the drug, the precent inhibition by the drug on A-II-induced pressor action was evaluated.

The structures appear in SMILES notation. Where only a bound is given, the exact number is not on record here.

For orientation: inhibition means the percentage by which the read-out fell short of the control. The low end stands for little suppression, the high end for strong suppression. For the compound `CCCCc1cc(=O)c(C(=O)OCC)cn1Cc1ccc(-c2ccccc2C(=O)O)cc1` [Working Example 1, Ethyl 6-n-butyl-1-[(2'-carboxybiphenyl-4-yl)methyl]-4-oxo-1,4-dihydronicotinate], in experiment [1], the inhibition at 1 µM is 67% and the inhibition at 0.1 µM is 24%.

`CCCCc1cc(=O)c(C(=O)OCC)cn1Cc1ccc(-c2ccccc2-c2nnn[nH]2)cc1` [Working Example 2, Ethyl 6-n-butyl-4-oxo-1-[[2'-(1H-tetrazol-5-yl)biphenyl-4-yl]methyl]-1,4-dihydronicotinate]: in experiment [1], testing at 1 µM gave an inhibition of 67% and testing at 0.1 µM gave an inhibition of 25%.

In experiment [1], `CCCCCc1cc(=O)c(C(=O)OCC)cn1Cc1ccc(-c2ccccc2-c2nn[nH]n2)cc1` [Working Example 3] gave an inhibition at 1 µM of 71% and an inhibition at 0.1 µM of 28%.

In experiment [1], `CCCc1cc(=O)c(C(=O)OCC)cn1Cc1ccc(-c2ccccc2-c2nn[nH]n2)cc1` [Working Example 4] gave an inhibition at 1 µM of 72% and an inhibition at 0.1 µM of 31%.

In experiment [1], `CCCCc1nc(COC)cc(=O)n1Cc1ccc(-c2ccccc2-c2nnn[nH]2)cc1` [Working Example 8, 2-n-Butyl-3-[[2'-(1H-tetrazol-5-yl)biphenyl-4-yl]methyl]-6-methoxymethyl-4(3H)-pyrimidone] yielded an inhibition at 1 µM of 73% and an inhibition at 0.1 µM of 29%.

In experiment [1], `CCCCc1ncc(C(=O)OCC)c(=O)n1Cc1ccc(-c2ccccc2-c2nnn[nH]2)cc1` [Working Example 10, Ethyl 2-n-butyl-4-oxo-3-[[2'-(1H-tetrazol-5-yl)biphenyl-4-yl]methyl]-3,4-dihydropyrimidine-5-carboxylate] returned an inhibition at 1 µM of 75% and an inhibition at 0.1 µM of 32%.

In the case of `CCCCc1nc(=O)c(C(=O)OCC)cn1Cc1ccc(-c2ccccc2-c2nnn[nH]2)cc1` [Working Example 11, Ethyl 2-n-butyl-4-oxo-1-[[2'-(1H-tetrazol-5-yl)biphenyl-4-yl]methyl]-1,4-dihydropyrimidine-5-carboxylate], in experiment [1], the inhibition at 1 µM stood at 70% and testing at 0.1 µM gave an inhibition of 29%.

In experiment [1], `CCCCc1ncc([N+](=O)[O-])c(=O)n1Cc1ccc(-c2ccccc2-c2nn[nH]n2)cc1` [Working Example 13, 2-n-Butyl-5-nitro-3-[[2'-(1H-tetrazol-5-yl)biphenyl-4-yl-]methyl]-4(3H)-pyrimidone] showed an inhibition at 1 µM of 73% and an inhibition at 0.1 µM of 30%.

In experiment [1], `CCCCc1nc(CC(=O)OC)cc(=O)n1Cc1ccc(-c2ccccc2-c2nnn[nH]2)cc1` [Working Example 16, 2-n-Butyl-6-methoxycarbonylmethyl-3-[[2'-(1H-tetrazol-5-yl)biphenyl-4-yl]methyl]-4(3H)-pyrimidone] displayed an inhibition at 1 µM of 68% and an inhibition at 0.1 µM of 31%.

For `CCCCc1nc2ccccc2c(=O)n1Cc1ccc(-c2ccccc2-c2nnn[nH]2)cc1` [Working Example 23, 2-n-Butyl-3-[[2'-(1H-tetrazol-5-yl)biphenyl-4-yl]methyl]-4(3H)-quinazolinon], in experiment [2], the inhibition in vivo at 30 mg/kg is at least 70%. In experiment [1], this compound had an inhibition at 1 µM of 85% and an inhibition at 0.1 µM of 46%.

In experiment [1], `CCCCc1nc2cc([N+](=O)[O-])ccc2c(=O)n1Cc1ccc(-c2ccccc2-c2nn[nH]n2)cc1` [Working Example 24] came in with an inhibition at 1 µM of 41% and an inhibition at 0.1 µM of 3%.

For `CCCCc1nc2cc(Cl)ccc2c(=O)n1Cc1ccc(-c2ccccc2-c2nn[nH]n2)cc1` [Working Example 25], in experiment [1], the inhibition at 1 µM came to 58% and the inhibition at 0.1 µM was found to be 18%.

Regarding `CCCCc1nc2cccc(C)c2c(=O)n1Cc1ccc(-c2ccccc2-c2nn[nH]n2)cc1` [Working Example 26], the inhibition in vivo at 30 mg/kg in experiment [2] was at least 70%. In addition, in experiment [1], the inhibition at 1 µM was found to be 74% and 0.1 µM produced 36% inhibition.

Turning to `CCCCC(=O)Oc1ccc2nc(CCCC)n(Cc3ccc(-c4ccccc4-c4nn[nH]n4)cc3)c(=O)c2c1` [Working Example 29], the inhibition in vivo at 30 mg/kg in experiment [2] is at least 70%. For the same compound, in experiment [1], the inhibition at 1 µM amounted to 92% and the inhibition at 0.1 µM came out at 66%.

Take `CCCCc1nc2cccc(COC(C)=O)c2c(=O)n1Cc1ccc(-c2ccccc2-c2nn[nH]n2)cc1` [Working Example 32]: the inhibition in vivo at 30 mg/kg in experiment [2] was at least 70%. In experiment [1], this compound returned an inhibition at 1 µM of 93% and an inhibition at 0.1 µM of 72%.

Consider `CCCCc1nc2ccc(OC)cc2c(=O)n1Cc1ccc(-c2ccccc2-c2nn[nH]n2)cc1` [Working Example 37], for which the inhibition in vivo at 30 mg/kg in experiment [2] was at least 70%. In experiment [1], this compound displayed an inhibition at 1 µM of 97% and an inhibition at 0.1 µM of 77%.

Turning to `CCCCc1nc2ccc(OCC(=O)OC)cc2c(=O)n1Cc1ccc(-c2ccccc2-c2nn[nH]n2)cc1` [Working Example 38], the inhibition in vivo at 30 mg/kg in experiment [2] is at least 70%. For the same compound, in experiment [1], the inhibition at 1 µM turned out to be 89% and the inhibition at 0.1 µM turned out to be 59%.

As to `CCCCc1nc2ccc(OCCOC(C)=O)cc2c(=O)n1Cc1ccc(-c2ccccc2-c2nn[nH]n2)cc1` [Working Example 39], the inhibition in vivo at 30 mg/kg in experiment [2] is at least 70%. In experiment [1], this compound had an inhibition at 1 µM of 92% and an inhibition at 0.1 µM of 69%.

In the case of `CCCc1nc2ccc(OCCOC(=O)c3ccccc3)cc2c(=O)n1Cc1ccc(-c2ccccc2-c2nn[nH]n2)cc1` [Working Example 41], the inhibition in vivo at 30 mg/kg in experiment [2] was at least 70%. Further, in experiment [1], the inhibition at 1 µM came to 83% and the inhibition at 0.1 µM is 48%.

Turning to `CCCc1nc2ccc(OCC(=O)N3CCOCC3)cc2c(=O)n1Cc1ccc(-c2ccccc2-c2nn[nH]n2)cc1` [Working Example 48], in experiment [1], the inhibition at 1 µM was 95% and at 0.1 µM the inhibition was 81%.

Regarding `CCCc1nc2ccc(OCC(=O)NCc3ccccc3)cc2c(=O)n1Cc1ccc(-c2ccccc2-c2nn[nH]n2)cc1` [Working Example 49], in experiment [1], the inhibition at 1 µM was 88% and the inhibition at 0.1 µM came to 63%.

For `CCCCc1nc2cccc(COC)c2c(=O)n1Cc1ccc(-c2ccccc2-c2nn[nH]n2)cc1` [Working Example 50], in experiment [1], at 1 µM the inhibition was 95% and the inhibition at 0.1 µM amounted to 73%.

For `CCCc1nc2ccc(OCCO)cc2c(=O)n1Cc1ccc(-c2ccccc2-c2nnn[nH]2)cc1` [Working Example 53, 6-(2-Hydroxyethyloxy)-2-propyl-3-[[2'-(1H-tetrazol-5-yl)biphenyl-4-yl]methyl]-4(3H)-quinazolinone], the inhibition in vivo at 30 mg/kg in experiment [2] was at least 70%. Further, in experiment [1], at 1 µM the inhibition was 92% and the inhibition at 0.1 µM was found to be 76%.

Turning to `CCCCc1nc2cccc(CO)c2c(=O)n1Cc1ccc(-c2ccccc2-c2nnn[nH]2)cc1` [Working Example 54, 2-Butyl-5-hydroxymethyl-3-[[2'-(1H-tetrazol-5-yl)biphenyl-4-yl]methyl]-4(3H)-quinazolinone], the inhibition in vivo at 30 mg/kg in experiment [2] is at least 70%. For the same compound, in experiment [1], the inhibition at 1 µM came out at 88% and the inhibition at 0.1 µM came to 74%.

In the case of `CCCCc1nc2ccc(OCCO)cc2c(=O)n1Cc1ccc(-c2ccccc2-c2nnn[nH]2)cc1` [Working Example 55, 2-Butyl-6-(2-hydroxyethyloxy)-3-[[2'-(1H-tetrazol-5-yl)biphenyl-4-yl]-methyl]-4(3H)-quinazolinone], the inhibition in vivo at 30 mg/kg in experiment [2] was at least 70%. In experiment [1], this compound returned an inhibition at 1 µM of 94% and an inhibition at 0.1 µM of 75%.
